ChEMBL document CHEMBL3425474, “Biphenyl-ethyl-pyrrolidine derivatives as histamine h3 receptor modulators for the treatment of cognitive disorders” (ACS Med Chem Lett, 2015)

Target: Histamine H3 receptor (Homo sapiens, UniProt Q9Y5N1)
Assay: Modulation of human histamine H3 receptor expressed in HEK293 cells assessed as change in forskolin-stimulated cAMP level after 1 hr by HTRF assay
Assay type: functional, cell-based

Histamine H3 receptor, sequence (Q9Y5N1 whole entry): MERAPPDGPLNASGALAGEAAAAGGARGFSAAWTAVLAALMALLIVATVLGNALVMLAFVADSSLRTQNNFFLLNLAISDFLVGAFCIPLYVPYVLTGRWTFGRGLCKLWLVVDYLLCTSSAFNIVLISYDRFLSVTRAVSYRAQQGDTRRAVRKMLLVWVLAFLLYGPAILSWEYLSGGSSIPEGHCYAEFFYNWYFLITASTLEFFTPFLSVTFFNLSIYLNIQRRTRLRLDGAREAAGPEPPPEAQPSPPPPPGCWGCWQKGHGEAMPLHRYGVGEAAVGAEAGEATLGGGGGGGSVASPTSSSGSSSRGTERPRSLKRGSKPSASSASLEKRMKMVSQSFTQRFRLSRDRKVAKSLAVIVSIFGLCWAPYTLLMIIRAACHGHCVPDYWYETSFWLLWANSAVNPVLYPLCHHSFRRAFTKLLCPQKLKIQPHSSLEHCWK

| Structure (SMILES) | IC50 [nM] |
| --- | --- |
| C[C@@H]1CCCN1CCc1ccc(-c2ccc(CCNC(=O)C(C)(C)C(=O)OC(C)(C)C)cc2)cc1 | 0.95 |
| C[C@@H](C(=O)NCCc1ccc(-c2ccc(CCN3CCC[C@H]3C)cc2)cc1)C(=O)OC(C)(C)C | 2.1 |
| COC(=O)CCCC(=O)NC1(c2ccc(-c3ccc(CCN4CCC[C@H]4C)cc3)cc2)CCCC1 | 15 |
| COC(=O)CC(=O)NCCc1ccc(-c2ccc(CCN3CCC[C@H]3C)cc2)cc1 | 0.99 |
| COC(=O)CC(=O)NC1(c2ccc(-c3ccc(CCN4CCC[C@H]4C)cc3)cc2)CCCC1 | 1.9 |
| C[C@@H]1CCCN1CCc1ccc(-c2ccc(C3(NC(=O)CCCC(=O)O)CCCC3)cc2)cc1 | 2.1 |
| COC(=O)C(C)(C)C(=O)Nc1ccc(-c2ccc(CCN3CCC[C@H]3C)cc2)cc1 | 1.2 |
| C[C@@H]1CCCN1CCc1ccc(-c2ccc(NC(=O)CCC(=O)O)cc2)cc1 | 2.5 |
